PubChem BioAssay (NCI)
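1) Cells in 96-well plates. 2) Compound, 48 h, 5 concentrations. 3) Linear interpolation between surrounding doses. 4) Unreached endpoint = highest concentration. Definition used: TGI = concentration required for complete inhibition of growth.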

How the values were obtained:
Assay in all cases: NCI-60 cell line screen, 48 h
A498 renal = system: A498 renal
MOLT-4 leukemia = system: MOLT-4 leukemia
KM12 colon = system: KM12 colon
CAKI-1 renal = system: CAKI-1 renal
M14 melanoma = system: M14 melanoma
SF-268 CNS = system: SF-268 CNS
SR leukemia = system: SR leukemia
UACC-257 melanoma = system: UACC-257 melanoma
HOP-92 NSCLC = system: HOP-92 NSCLC
HS 578T breast = system: HS 578T breast
MDA-MB-435 = system: MDA-MB-435
RXF 393 renal = system: RXF 393 renal
SK-MEL-2 melanoma = system: SK-MEL-2 melanoma
UACC-62 melanoma = system: UACC-62 melanoma
NCI-H522 lung = system: NCI-H522 lung
SN12C renal = system: SN12C renal
HOP-62 NSCLC = system: HOP-62 NSCLC
PC-3 prostate = system: PC-3 prostate
786-0 renal = system: 786-0 renal
OVCAR-8 ovarian = system: OVCAR-8 ovarian
SK-MEL-28 melanoma = system: SK-MEL-28 melanoma
HCT-15 colon = system: HCT-15 colon
CCRF-CEM leukemia = system: CCRF-CEM leukemia
HT29 colon = system: HT29 colon
NCI-H460 lung = system: NCI-H460 lung
A549 NSCLC = system: A549 NSCLC
MALME-3M melanoma = system: MALME-3M melanoma
K-562 leukemia = system: K-562 leukemia
HL-60(TB) leukemia = system: HL-60(TB) leukemia
NCI-H23 lung = system: NCI-H23 lung
MCF7 breast = system: MCF7 breast
MDA-N = system: MDA-N
OVCAR-3 ovarian = system: OVCAR-3 ovarian
TK-10 renal = system: TK-10 renal
SK-OV-3 ovarian = system: SK-OV-3 ovarian
BT-549 breast = system: BT-549 breast
DU-145 prostate = system: DU-145 prostate
IGROV1 ovarian = system: IGROV1 ovarian
SW-620 colon = system: SW-620 colon
SNB-19 CNS = system: SNB-19 CNS
U251 CNS = system: U251 CNS
UO-31 renal = system: UO-31 renal
MDA-MB-231 breast = system: MDA-MB-231 breast
HCT-116 colon = system: HCT-116 colon
SK-MEL-5 melanoma = system: SK-MEL-5 melanoma
ACHN renal = system: ACHN renal
T-47D breast = system: T-47D breast
NCI/ADR-RES ovarian = system: NCI/ADR-RES ovarian
RPMI-8226 leukemia = system: RPMI-8226 leukemia
SF-539 CNS = system: SF-539 CNS
OVCAR-4 ovarian = system: OVCAR-4 ovarian
COLO 205 colon = system: COLO 205 colon
LOX IMVI melanoma = system: LOX IMVI melanoma
SF-295 CNS = system: SF-295 CNS
OVCAR-5 ovarian = system: OVCAR-5 ovarian
EKVX NSCLC = system: EKVX NSCLC
SNB-75 CNS = system: SNB-75 CNS
HCC-2998 colon = system: HCC-2998 colon
NCI-H226 lung = system: NCI-H226 lung

For `Oc1ccc2oc3c(O)c4ccccc4cc3c2c1`, the TGI (A498 renal) was 9.33 µM, the TGI (MOLT-4 leukemia) was 11.9 µM and the TGI (KM12 colon) was 10.5 µM. It also gave a TGI (CAKI-1 renal) of 68.7 µM, a TGI (M14 melanoma) of 21.7 µM and a TGI (SF-268 CNS) of 21.5 µM. For the same compound, the TGI (SR leukemia) was 5.52 µM, the TGI (UACC-257 melanoma) was greater than 100 µM and the TGI (HOP-92 NSCLC) was 41.6 µM. For the same compound, the TGI (HS 578T breast) was greater than 100 µM, the TGI (MDA-MB-435) was 5.33 µM and the TGI (RXF 393 renal) was 16.9 µM. It also gave a TGI (SK-MEL-2 melanoma) of 93 µM, a TGI (UACC-62 melanoma) of 1670 nM and a TGI (NCI-H522 lung) of 2710 nM. It also gave a TGI (SN12C renal) of 8.32 µM, a TGI (HOP-62 NSCLC) greater than 100 µM and a TGI (PC-3 prostate) greater than 100 µM. For the same compound, the TGI (786-0 renal) was 20 µM, the TGI (OVCAR-8 ovarian) was 16.5 µM and the TGI (SK-MEL-28 melanoma) was greater than 100 µM. It also gave a TGI (HCT-15 colon) of 21.3 µM, a TGI (CCRF-CEM leukemia) of 8.47 µM and a TGI (HT29 colon) of 48.6 µM. The TGI (NCI-H460 lung) was 53.9 µM, the TGI (A549 NSCLC) was greater than 100 µM and the TGI (MALME-3M melanoma) was 33.4 µM. The TGI (K-562 leukemia) was 1300 nM, the TGI (HL-60(TB) leukemia) was 13.5 µM and the TGI (NCI-H23 lung) was 65.3 µM. It also gave a TGI (MCF7 breast) of 18.8 µM, a TGI (MDA-N) of 9.89 µM and a TGI (OVCAR-3 ovarian) of 15.1 µM. It also gave a TGI (TK-10 renal) of 45 µM, a TGI (SK-OV-3 ovarian) of 53.2 µM and a TGI (BT-549 breast) of 15.3 µM. It also gave a TGI (DU-145 prostate) of 15.6 µM, a TGI (IGROV1 ovarian) of 4.21 µM and a TGI (SW-620 colon) of 14.1 µM. For the same compound, the TGI (SNB-19 CNS) was greater than 100 µM, the TGI (U251 CNS) was 21.1 µM and the TGI (UO-31 renal) was 15.8 µM. The TGI (MDA-MB-231 breast) was 36 µM, the TGI (HCT-116 colon) was 4.16 µM and the TGI (SK-MEL-5 melanoma) was 7.5 µM. It also gave a TGI (ACHN renal) of 21 µM, a TGI (T-47D breast) of 55.4 µM and a TGI (NCI/ADR-RES ovarian) of 9.74 µM. The TGI (RPMI-8226 leukemia) was 3.96 µM, the TGI (SF-539 CNS) was 3.91 µM and the TGI (OVCAR-4 ovarian) was 13 µM. For the same compound, the TGI (COLO 205 colon) was 28 µM and the TGI (LOX IMVI melanoma) was 21.9 µM.
Work on `O=C(CC(C(=O)c1ccco1)c1cccs1)c1cccs1` (centres undefined) yielded a TGI (A498 renal) greater than 100 µM, a TGI (KM12 colon) greater than 100 µM and a TGI (CAKI-1 renal) greater than 100 µM. It also gave a TGI (M14 melanoma) greater than 100 µM, a TGI (SF-268 CNS) greater than 100 µM and a TGI (SR leukemia) greater than 100 µM. For the same compound, the TGI (UACC-257 melanoma) was greater than 100 µM, the TGI (HOP-92 NSCLC) was greater than 100 µM and the TGI (SF-295 CNS) was greater than 100 µM. For the same compound, the TGI (HS 578T breast) was greater than 100 µM, the TGI (MDA-MB-435) was greater than 100 µM and the TGI (RXF 393 renal) was greater than 100 µM. The TGI (SK-MEL-2 melanoma) was greater than 100 µM, the TGI (UACC-62 melanoma) was greater than 100000 nM and the TGI (NCI-H522 lung) was greater than 100000 nM. For the same compound, the TGI (SN12C renal) was greater than 100 µM, the TGI (HOP-62 NSCLC) was greater than 100 µM and the TGI (PC-3 prostate) was greater than 100 µM. The TGI (OVCAR-5 ovarian) was greater than 100 µM, the TGI (786-0 renal) was greater than 100 µM and the TGI (OVCAR-8 ovarian) was greater than 100 µM. For the same compound, the TGI (EKVX NSCLC) was 97.8 µM, the TGI (SK-MEL-28 melanoma) was greater than 100 µM and the TGI (HCT-15 colon) was greater than 100 µM. It also gave a TGI (HT29 colon) greater than 100 µM, a TGI (NCI-H460 lung) greater than 100 µM and a TGI (SNB-75 CNS) greater than 100 µM. It also gave a TGI (A549 NSCLC) greater than 100 µM, a TGI (MALME-3M melanoma) greater than 100 µM and a TGI (HL-60(TB) leukemia) of 60.3 µM. For the same compound, the TGI (NCI-H23 lung) was greater than 100 µM, the TGI (HCC-2998 colon) was greater than 100 µM and the TGI (MCF7 breast) was greater than 100 µM. For the same compound, the TGI (MDA-N) was greater than 100 µM, the TGI (OVCAR-3 ovarian) was greater than 100 µM and the TGI (TK-10 renal) was greater than 100 µM. For the same compound, the TGI (SK-OV-3 ovarian) was greater than 100 µM, the TGI (BT-549 breast) was greater than 100 µM and the TGI (DU-145 prostate) was greater than 100 µM. The TGI (IGROV1 ovarian) was greater than 100 µM, the TGI (SW-620 colon) was greater than 100 µM and the TGI (SNB-19 CNS) was greater than 100 µM. The TGI (U251 CNS) was greater than 100 µM, the TGI (UO-31 renal) was greater than 100 µM and the TGI (MDA-MB-231 breast) was greater than 100 µM. For the same compound, the TGI (HCT-116 colon) was greater than 100 µM, the TGI (SK-MEL-5 melanoma) was greater than 100 µM and the TGI (ACHN renal) was greater than 100 µM. It also gave a TGI (T-47D breast) greater than 100 µM, a TGI (NCI/ADR-RES ovarian) greater than 100 µM and a TGI (RPMI-8226 leukemia) greater than 100 µM. The TGI (SF-539 CNS) was greater than 100 µM, the TGI (NCI-H226 lung) was greater than 100 µM and the TGI (OVCAR-4 ovarian) was greater than 100 µM. It also gave a TGI (COLO 205 colon) greater than 100 µM and a TGI (LOX IMVI melanoma) greater than 100 µM.
